Source: PMC11157767 (Molecular Cancer, 2024)
pEC50: −log10 of the molar value. Like-named read-outs stand apart in the source and are kept apart here.

What was measured:
[1] = cited from earlier work
pMET, pErk, pAkt = test: Phosphoprotein IHC/western blot in TFG-MET allograft tumors (PD and Survival cohort); assay type: in vivo, mouse; conditions: for levels of phosphorylated MET, Erk and Akt in initial neoplasms: PD cohort, after second treatment, vs vehicle
Method: Error bars display standard error of the mean. Statistical significance was determined using a One-Way ANOVA followed by Tukey’s multiple comparisons test (*p<0.05, **p<0.01, ***p<0.001, ****p<0.0001)
All treatments started 1 week after transplantation. Radio therapy was administered for 6 days, delivering 12 Gy total. Compound treatment was continued for 84 days. […] N = 8 (vehicle arms) or n = 10 (compound-treated arms), respectively.

TRIM24-MET-i cells = test: 3-day dose-response assay, TRIM24-MET-i cells; assay type: cell-based; conditions: Homo sapiens

Compound: CNC(=O)c1ccc(-c2cnc3ncc(Cc4ccc5ncccc5c4)n3n2)cc1F [Capmatinib]
- mean steady total plasma AUC ([1]; humans, 400 mg BID orally): 17,300 hr-ng/mL
- levels of phosphorylated MET, Erk and Akt in initial neoplasms (pMET, pErk, pAkt): greatly reduced levels
- animals with pMET and pErk reduced to background levels (pMET, pErk, pAkt; Survival cohort, sacrificed under treatment): 4/6
- EC90 (TRIM24-MET-i cells; 72 h, TRIM24-MET-i, 3-day dose response, read-out: EC90 Total): 5.93 nM
- EC90 (TRIM24-MET-i cells; TRIM24-MET-i, total value multiplied with unbound fraction in culture media, read-out: EC90 Unbound): 4.18 nM

Compound: C[C@@H](Oc1cc(-c2cnn(C3CCNCC3)c2)cnc1N)c1c(Cl)ccc(F)c1Cl [Crizotinib]
- mean steady total plasma AUC ([1]; pediatric solid tumors, maximum tolerated dose 280 mg/m^2 BID): 6,990 hr-ng/mL
- levels of phosphorylated MET, Erk and Akt in initial neoplasms (pMET, pErk, pAkt): less complete reduction
- pEC50 (TRIM24-MET-i cells; 72 h, read-out: EC50 Total): 7.74
- EC90 (TRIM24-MET-i cells; 72 h, read-out: EC90 Total): 322 nM
- pEC50 (TRIM24-MET-i cells; read-out: EC50 Unbound): 7.95
- EC90 (TRIM24-MET-i cells; read-out: EC90 Unbound): 198 nM
